# Reference: ChEMBL document CHEMBL4665675 (J Med Chem, 2020)
# Key:
# A549 [1] = assay: Antiproliferative activity against human A549 cells incubated for 36 hrs; format: functional, cell-based; conditions: A549, 36 h
# KB = assay: Antiproliferative activity against human KB cells incubated for 36 hrs; format: functional, cell-based
# HCT-8 = assay: Antiproliferative activity against human HCT-8 cells incubated for 36 hrs; format: functional, cell-based; conditions: HCT-8, 36 h
# TE-671 = assay: Antiproliferative activity against human TE-671 cells incubated for 36 hrs; format: functional, cell-based; conditions: TE-671, 36 h
# [2] = Inhibition of bovine brain tubulin polymerization preincubated for 15 mins followed by GTP addition; set-up: species or system Bos taurus
# P388 = assay: Antiproliferative activity against mouse P388 cells incubated for 36 hrs; format: functional, cell-based; conditions: P388, 36 h
# RPMI-7951 = assay: Antiproliferative activity against human RPMI-7951 cells incubated for 36 hrs; format: functional, cell-based; conditions: RPMI-7951, 36 h
# DU-145 = assay: Antiproliferative activity against human DU145 cells incubated for 72 hrs by WST assay; format: functional, cell-based; conditions: DU-145, 72 h
# PANC-1 [3] = assay: Antiproliferative activity against human PANC1 cells incubated for 72 hrs by WST assay; format: functional, cell-based; conditions: PANC-1, 72 h
# Jurkat = assay: Cytotoxicity against human Jurkat cells; format: functional, cell-based
# BJAB = assay: Cytotoxicity against human BJAB cells; format: functional, cell-based
# HaCaT [4] = assay: Cytotoxicity against human HaCaT cells; format: functional, cell-based
# K562 = assay: Cytotoxicity against human K562 cells; format: functional, cell-based
# HBL-100 = assay: Cytotoxicity against human HBL100 cells; format: functional, cell-based
# L1210 = assay: Cytotoxicity against mouse L1210 cells incubated for 24 hrs; format: functional, cell-based; conditions: L1210, 24 h
# Bos taurus = species on record: Bos taurus; assay: Inhibition of [3H]colchicine binding to bovine brain tubulin at 5 uM incubated for 10 mins by DEAE-cellulose filter method relative to control
# HaCaT [5] = assay: Cytotoxicity against human HaCaT cells incubated for 72 hrs by MTT assay; format: functional, cell-based
# PANC-1 [6] = assay: Cytotoxicity against human PANC1 cells incubated for 72 hrs by MTT assay; format: functional, cell-based; conditions: PANC-1, 72 h
# HEK293 = assay: Cytotoxicity against HEK293 cells; format: cell-based; conditions: Homo sapiens
# Tubulin = assay: Inhibition of tubulin polymerization (unknown origin); format: protein-complex assay, Homo sapiens
# A549 [7] = assay: Cytotoxicity against human A549 cells by MTT assay; format: functional, cell-based
# Rattus norvegicus = species on record: Rattus norvegicus; assay: Inhibition of [3H]colchicine binding to rat brain tubulin at 25 uM relative to control
structure (smiles),measurement,setting,value
C=C1Cc2cc(OC)c(OC)c(OC)c2-c2ccc(SC)c(=O)cc21,IC50,A549 [1],252 nM
same,IC50,KB,140 nM
same,IC50,HCT-8,160 nM
same,IC50,TE-671,0.084 nM
same,IC50,[2],2400 nM
same,IC50,P388,22 nM
same,IC50,RPMI-7951,0.084 nM
COc1cc2c(c(OC)c1OC)-c1ccc(O)cc1[C@@H](NC(C)=O)CC2 [N-ACETYLCOLCHINOL],IC50,DU-145,720 nM
same,IC50,PANC-1 [3],4400 nM
CCOC(=O)OC[C@H]1Cc2cc(OC)c(OC)c(OC)c2-c2ccc(SC)c(=O)cc21,IC50,A549 [1],0.001 nM
same,IC50,KB,11 nM
same,IC50,HCT-8,179 nM
same,IC50,TE-671,0.001 nM
same,IC50,[2],3700 nM
same,IC50,P388,16 nM
same,IC50,RPMI-7951,0.001 nM
CCCCCCCCCCCCCCCCCC(=O)OCc1cn([C@H]2CCc3cc(OC)c(OC)c(OC)c3-c3ccc(OC)c(=O)cc32)nn1,IC50,Jurkat,3.5 nM
same,IC50,BJAB,3.5 nM
same,IC50,HaCaT [4],3.5 nM
same,IC50,K562,3.5 nM
same,IC50,HBL-100,3.5 nM
COc1c2c(cc3c1-c1ccc(OC)c(=O)cc1[C@@H](NC(C)=O)CC3)OCO2,IC50,L1210,20 nM
same,inhibition,Bos taurus,54%
COc1cc2c(c(OC)c1OC)-c1ccc(F)cc1C(NC(C)=O)CC2 (stereo not given),IC50,DU-145,760 nM
same,IC50,PANC-1 [3],7900 nM
CCCCCCCCCCCCCCCC(=O)OCc1cn([C@H]2CCc3cc(OC)c(OC)c(OC)c3-c3ccc(OC)c(=O)cc32)nn1,IC50,Jurkat,3.5 nM
same,IC50,BJAB,3.5 nM
same,IC50,HaCaT [4],3.5 nM
same,IC50,K562,3.5 nM
same,IC50,HBL-100,3.5 nM
CCCCCCCCCCCCCCCC(=O)OCC(COP(=O)([O-])OCC[N+](C)(C)C)OC(=O)CCCCCCCCCc1n[nH]c(CC(=O)OCC(=O)N[C@H]2CCc3cc(OC)c(OC)c(OC)c3-c3ccc(C(=O)OC)cc32)n1 (stereo not given in full),IC50,HaCaT [5],400 nM
same,IC50,PANC-1 [6],400 nM
COC(=O)NC1CCc2cc(OC)c(OC)c(OC)c2-c2ccc(F)cc21 (stereo not given),IC50,DU-145,1400 nM
same,IC50,PANC-1 [3],7000 nM
COc1cc2c(c(OC)c1OC)-c1ccc3[nH]c(C)c(C)c3c1[C@@H](NC(C)=O)CC2,IC50,HEK293,2000 nM
COc1cc2c(c(OC)c1OC)-c1ccc(OC)c(=O)cc1CC=C2,IC50,Tubulin,1600 nM
COc1cc2c(c(OC)c1OC)-c1ccc(OC)c(=O)cc1CCC2,IC50,Tubulin,2600 nM
COc1cc2c(c(OC)c1OC)-c1ccc(OC)c(=O)cc1[C@@H](NC(=O)CCCCCCC(=O)C1C3CC4CC(C3)CC1C4)CC2 (stereo not given in full),IC50,A549 [7],≤ 5 nM
COc1cc2c(c(OC)c1OC)-c1cccc(=O)cc1[C@@H](NC(C)=O)CC2,inhibition,Rattus norvegicus,87%
COc1cc2c(c(OC)c1OC)-c1ccc(OC)c(=O)cc1[C@@H](NC(=O)CCCCCC(=O)OC1C3CC4CC(C3)CC1C4)CC2 (stereo not given in full),IC50,A549 [7],≤ 5 nM
